According to US10441588B2, “Methods and compositions for treating bacterial infection” (Curators of the University of Missouri, priority 2012, dated 2019):
Entries after “also recorded” stand apart in the source; their conditions may differ.

Legend:
S. aureus biofilm = S. aureus biofilm inhibition, optical density, test/control; type: cell-based, Staphylococcus aureus; settings: Staphylococcus aureus, growth of biofilm test/control by optical density
S. aureus = S. aureus growth inhibition, optical density, test/control; type: cell-based, Staphylococcus aureus; settings: Staphylococcus aureus, growth of bacteria test/control by optical density
[1] = system: S. aureus RN6390 strain biofilm; assay: microbe, parasite or virus in culture; type: cell-based
S. aurues strain RN6390 = assay: S. aureus RN6390 bacterial growth; type: cell-based; settings: at 20 μM
Procedure: (§1) These compounds were then tested on staphylococcus biofilm formation. […] The two compounds (CCG-203592 and CCG-205363) were tested on S. aurues strain RN6390, which is reported to be more prone to biofilm formation than Newman strain.

[2] = system: S. aureus virulence factor genes; assay: S. aureus virulence factor gene expression, real time RT-PCR; type: cell-based; settings: RN6390, 50 μM; ML, LL and S growth phase
[3] = system: S. aureus RN6390 strain biofilm; assay: Biofilm formation on medical grade silicone sheet; type: cell-based
S. aureus Newman biofilm = S. aureus Newman biofilm formation in microtiter plates; type: cell-based
Procedure: as §1

S. aureus Newman strain = assay: S. aureus lung infection model in mice; settings: intranasal S. aureus Newman, 3-4×10^8 CFU per mouse
E. coli flagellin (fliC) = assay: microbe, parasite or virus in culture; type: cell-based
[4] = system: S. aureus clinical strain NRS234; assay: S. aureus pneumonia model; type: in vivo, Balb/C mice
Procedure: S. aureus is one of the major causative agents of pneumonia. CCG-211790 was tested in a pneumonia model. Balb/C mice were intra-nasally infected with 10^7 CFU S. aureus clinical strain NRS234 and treated with either 0.15 μmol CCG-211790 or DMSO two hours after infection. The mice were then treated with CCG-211790 or DMSO (control) twice a day after the day of infection for three days. […] Mice were also infected with higher dose of bacteria at 10^9 CFU treated intraperitoneally (ip) with either 0.15 μmol CCG-211790, vancomycin, combination of CCG-21790 and vancomycin, or DMSO two hours after infection. The mice were then treated twice a day after the day of infection for three days.

MRSA [5] = assay: MRSA skin punch wound infection in DIO mice; type: in vivo, diet induced obesity (DIO) mice; settings: 10^8 CFU MRSA; 60 μg/wound in ointment (6% silica in cod liver oil) vs ointment alone
Text: In this example, in vivo and in vitro efficacy for wound infection (against MRSA and P. aeruginosa) was investigated. Diabetic ulcer lesion is a major complication of people with diabetes and represents a form of chronic wounds. Bacteria can form biofilm in the lesions, which is recalcitrant to treatment. Therefore, diet induced obesity (DIO) mice were used as a model of obesity and insulin resistance diabetes to test the in vivo efficacy of CCG-211790 to fight wound infections.
(§2) A skin punch wound was introduced to the DIO mice and infected with 10^8 CFU MRSA. Mice were then treated locally at the wound site with ointment containing CCG-211790 (60 μg/wound) in an ointment (6% silica in cod liver oil) or ointment alone. […] Furthermore, CCG-211790 protected mouse fibroblast cells (CCL-1) from MRSA cytoxicity in vitro (FIG. 13B).

[6] = system: mouse fibroblast cells (CCL-1); assay: MRSA cytotoxicity on mouse fibroblast cells in vitro; type: cell-based
Procedure: as §2

P. aeruginosa [7] = assay: P. aeruginosa wound infection in DIO mice; type: in vivo
[8] = system: E. coli adhesion to human epithelial cells (Caco2); assay: E. coli adhesion to Caco2 cells; type: cell-based; settings: Caco-2
Procedure: FIGS. 15A and 15B show CCG-211790 (NV001) inhibited E. coli virulence. FIG. 15A is a western blot of fliC expression at different concentrations of CCG-211790 (NV001).
CCG-211790 (NV001) and a number of structural analogs inhibited the expression of the flagellin gene (fliC) (FIG. 15A) and also the bacterial adhesion to human epithelial cells (Caco2) (FIG. 15B). As summarized in Table 5, the effect of compounds on E. coli flagellin expression was also tested by incubating compounds (5 and 25 μM) with E. coli for 6 hours, flagellin expression in supernatant (IVG-00601, 607) or cell pellet (IVG-00608-006014) was examined by western and quantified.

E. coli STEC O157:H7 = type: in vivo, mice
[9] = system: A. baumannii (AYE) biofilm; assay: A. baumannii open wound infection mouse model; type: in vivo, mice; settings: topical, 6 mg/ml in PEG, 100 μl daily
Procedure: A topical formulation (6 mg/ml in Polyehylene glycol; PEG) was tested for its in vivo efficacy on the open wound infection mouse model.

MRSA [10] = assay: MRSA growth
P. aeruginosa [11] = assay: Ciprofloxacin potency against P. aeruginosa
Acinetobacter baumannii = assay: Vancomycin potency against Acinetobacter baumannii
MRSA [12] = assay: MRSA response to antibiotics in presence of compound; settings: 50 μM CCG-211790

## C=CCn1c(SCC)nc2c(c1=O)C(C)(C)Cc1cc(OC)ccc1-2 [CCG-203592]
S. aureus biofilm; 10 μM
  activity at 10 µM: 40.2%
S. aureus biofilm; 100 μM
  activity at 100 µM: 23%
S. aureus
  activity at 100 µM: 110%
[1]
  IC50, inhibition of S. aureus biofilm formation: low μM range
[1]; Staphylococcus aureus, read-out: IC50, inhibition of RN6390 biofilm formation
  IC50: 2420 ± 140 nM
S. aurues strain RN6390
  bacteria growth: without inhibiting bacteria growth
[2]
  S. aureus virulence factor gene expression: down regulated; also recorded: inhibited gene expression
[3]
  biofilm formation on the surface of silicone sheet: decreased biofilm formation
S. aureus Newman biofilm
  S. aureus Newman biofilm formation: consistent inhibition
S. aureus Newman strain
  protection of mice in S. aureus lung infection model: in vivo efficacy in protecting mice

## COc1ccc2c(c1)-c1nc(SCC(F)(F)F)n(C)c(=O)c1C(C)(C)C2 [CCG-211790, 9-methoxy-3,5,5-trimethyl-2-((2,2,2-trifluoroethyl)thio)-5,6-dihydrobenzo[h]quinazolin-4(3H)-one]
S. aureus biofilm; 5 μM, read-out: S. aureus Biofilm Inhibition 5 μM vs. (−) Control
  activity at 5 µM: 38.1%
S. aureus biofilm; 50 μM, read-out: S. aureus Biofilm Inhibition 50 μM vs. (−) Control
  activity at 50 µM: 32.6%
E. coli flagellin (fliC); Escherichia coli, 6 h, read-out: E. coli flagellin production, Relative Level vs. Control, 5 μM
  activity at 5 µM: 56.9%
E. coli flagellin (fliC); Escherichia coli, 6 h, read-out: E. coli flagellin production, Relative Level vs. Control, 25 μM
  activity at 25 µM: 15.4%
E. coli flagellin (fliC); western blot, different concentrations
  expression of the flagellin gene (fliC): inhibited
[4]; 10^7 CFU intranasal, 0.15 μmol, twice a day for three days, vs DMSO
  bacterial counts in both lungs and spleens: Significant reduction
[4]; 10^9 CFU, 0.15 μmol ip
  protection of hosts (survival), monotherapy: Significant protection
[4]; 10^9 CFU, combination of vancomycin and CCG-211790
  survival rate, combination with vancomycin: improved the survival rate
MRSA [5]
  skin lesion size: reduce the skin lesion size
[6]
  protection of CCL-1 cells from MRSA cytoxicity: protected
P. aeruginosa [7]; female DIO mice, 10^8 CFU, 12 mg/kg CCG-211790 oral with 10 mg/kg vancomycin ip
  survival: 100%
P. aeruginosa [7]; male and female DIO mice, with vancomycin vs only vancomycin
  skin lesion size: reduced
[8]
  bacterial adhesion to human epithelial cells (Caco2): inhibited
E. coli STEC O157:H7; […], 10 mg/kg ip twice a day
  survival: 55.6%
E. coli STEC O157:H7; mouse, in vivo
  infection symptoms and survival: improved infection symptoms and survival
[9]
  A. baumannii infected wound lesion size: reduced
MRSA [10]
  effect on bacteria growth: little to no effect
P. aeruginosa [11]
  ciprofloxacin potency against P. aeruginosa: enhanced
Acinetobacter baumannii
  potency of vancomycin against Acinetobacter baumannii: enhanced the potency
MRSA [12]
  antibiotic potency against MRSA (amoxicillin, vancomycin, clindamycin, tetracycline, erythromycin): enhanced the antibiotic potency
